Data as given in paper PMC12188386, “Selective CBP/EP300 Bromodomain Inhibitors: Novel Epigenetic Tools to Counter TNF-α-Driven Inflammation” (JACS Au, 2025).

How the values were obtained:
[1] = tested on: immune cell recruitment to the popliteal lymph node; test: TNF-α induced inflammation model, flow cytometry of pLN; assay type: in vivo, mouse; conditions: mice, flow cytometry 5 h post-injection of rmTNF-α, vs control group
TK-10 = test: NCI-60 one-dose screen; assay type: cell-based, human; conditions: 10 µM, 48 h, Renal Cancer
Procedure: (§1) Adapted from NCI-60 Screening Methodology, one-dose screen:20 Briefly, human tumor cell lines, grown in RPMI 1640 containing 5% FBS and 2 mM L-glutamine, were plated in 96 well plates at densities ranging from 5,000 to 40,000 cells/well 24 h prior to addition of test compounds (here 10 μM 2). 400x solutions of test compounds were prepared in DMSO, then diluted to 2x in medium supplemented with 50 μg/mL gentamicin. 100 μl of this 2x stock was added to cells previously plated in 100 μl medium, resulting in the desired final compound concentration. Cells were fixed in situ with cold TCA: untreated cells at the time of compound addition (Tz) and treated cells 48 h after addition of compound (Ti). Cells were washed, then su f rh damine s uti n μ at . w/v in acetic acid was added to each well and incubated for 10 minutes at room temperature. After washing again, the plates were air dried and bound stain solubilized with 10 mM Trizma base before absorbance was […]
(§2) Percentage growth (%Growth) was calculated as follows:
(§3) when Ti ≥ Tz, %Growth = Ti − Tz x 100 where Ti = absorbance from compound treated cells, Tz = absorbance from untreated cells at time zero, and C = absorbance from control (DMSO) treated cells. […]

NCI-H23 = test: NCI-60 one-dose screen; assay type: cell-based, human; conditions: 10 µM, 48 h, Non-Small Cell Lung Cancer
Procedure: as §1, §2, §3

PC-3 = test: NCI-60 one-dose screen; assay type: cell-based, human; conditions: 10 µM, 48 h, Prostate Cancer
Procedure: as §1, §2, §3

HCC-2998 = test: NCI-60 one-dose screen; assay type: cell-based, human; conditions: 10 µM, 48 h, Colon Cancer
Procedure: as §1, §2, §3

SF-268 = test: NCI-60 one-dose screen; assay type: cell-based, human; conditions: 10 µM, 48 h, CNS Cancer
Procedure: as §1, §2, §3

K-562 = test: NCI-60 one-dose screen; assay type: cell-based, human; conditions: 10 µM, 48 h, Leukemia
Procedure: as §1, §2, §3

NCI/ADR-RES = test: NCI-60 one-dose screen; assay type: cell-based, human; conditions: 10 µM, 48 h, Ovarian Cancer
Procedure: as §1, §2, §3

RXF 393 = test: NCI-60 one-dose screen; assay type: cell-based, human; conditions: 10 µM, 48 h, Renal Cancer, values <0 indicate lethality
Procedure: as §1, §2, §3

A549/ATCC = test: NCI-60 one-dose screen; assay type: cell-based, human; conditions: 10 µM, 48 h, Non-Small Cell Lung Cancer
Procedure: as §1, §2, §3

SK-OV-3 = test: NCI-60 one-dose screen; assay type: cell-based, human; conditions: 10 µM, 48 h, Ovarian Cancer
Procedure: as §1, §2, §3

MOLT-4 = test: NCI-60 one-dose screen; assay type: cell-based, human; conditions: 10 µM, 48 h, Leukemia
Procedure: as §1, §2, §3

OVCAR-8 = test: NCI-60 one-dose screen; assay type: cell-based, human; conditions: 10 µM, 48 h, Ovarian Cancer
Procedure: as §1, §2, §3

T-47D = test: NCI-60 one-dose screen; assay type: cell-based, human; conditions: 10 µM, 48 h, Breast Cancer
Procedure: as §1, §2, §3

SNB-75 = test: NCI-60 one-dose screen; assay type: cell-based, human; conditions: 10 µM, 48 h, CNS Cancer
Procedure: as §1, §2, §3

SF-539 = test: NCI-60 one-dose screen; assay type: cell-based, human; conditions: 10 µM, 48 h, CNS Cancer
Procedure: as §1, §2, §3

LOX IMVI = test: NCI-60 one-dose screen; assay type: cell-based, human; conditions: 10 µM, 48 h, Melanoma
Procedure: as §1, §2, §3

HS 578T = test: NCI-60 one-dose screen; assay type: cell-based, human; conditions: 10 µM, 48 h, Breast Cancer
Procedure: as §1, §2, §3

EKVX = test: NCI-60 one-dose screen; assay type: cell-based, human; conditions: 10 µM, 48 h, Non-Small Cell Lung Cancer
Procedure: as §1, §2, §3

NCI-H522 = test: NCI-60 one-dose screen; assay type: cell-based, human; conditions: 10 µM, 48 h, Non-Small Cell Lung Cancer
Procedure: as §1, §2, §3

SN12C = test: NCI-60 one-dose screen; assay type: cell-based, human; conditions: 10 µM, 48 h, Renal Cancer
Procedure: as §1, §2, §3

CAKI-1 = test: NCI-60 one-dose screen; assay type: cell-based, human; conditions: 10 µM, 48 h, Renal Cancer
Procedure: as §1, §2, §3

[2] = tested on: TNF-α-induced cytokine expression in THP-1 cells; test: cytokine mRNA expression by RT-qPCR; assay type: cell-based, human; conditions: 1 h co-treatment of THP-1 cells with 10 ng/mL TNF-α and 1 μM compound
Procedure: For cytokine expression determination, 5x10^5 THP-1 cells were plated on 12 well plates the day prior to treatment with 10 ng/mL recombinant human TNF -α (aa 77-233) protein (R&D systems, 10291 -TA) and compounds at a final concentration of 0.1 % DMSO. In all cases, total
RNA was extracted using the NucleoSpin® RNA kit (Machery -Nagel) and used for cDNA synthesis with the High -Capacity cDNA Reverse Transcription kit (Applied Biosystems). RT-qPCR reactions were performed using PowerSYBR™ green PCR Master Mix (Applied Biosystems) and a LightCycler® 480 (Roche). cDNA was denatured for 10 min at 95 °C followed by 40 cycles of 15 s at 95 °C and 1 min at 60 °C. Cp values were determined as the maximum of the second derivative and target gene expression was compared to that of hprt from the same sample using the 2-ΔCp method. Gene expression was then normalized to the average of the control samples from the same day, or all biological replicates. […]

HL-60(TB) = test: NCI-60 one-dose screen; assay type: cell-based, human; conditions: 10 µM, 48 h, Leukemia
Procedure: compounds with known characteristics were included as controls. Quantification of test and control compounds was performed by LC-MS/MS using an 8-point calibration curve under Cyprotex standard analytical conditions. The initial concentration (C0) at time zero was determined from the dosing solution, and recovery was calculated based on concentrations […]
The apparent permeability coefficient (Papp) is calculated from the equation (where dQ/dt is the drug permeation rate across the cells, C0 is the concentration in the donor compartment at time zero, and A is the area of the cell monolayer):
Efflux ratio (ER) is calculated from mean A-B and B-A data: […]
Adapted from NCI-60 Screening Methodology, one-dose screen:20 Briefly, human tumor cell lines, grown in RPMI 1640 containing 5% FBS and 2 mM L-glutamine, were plated in 96 well plates at densities ranging from 5,000 to 40,000 cells/well 24 h prior to addition of test compounds (here 10 μM 2). […] After washing again, the plates were air dried and bound stain solubilized with 10 mM Trizma base before absorbance was […]
as §2, §3

[3] = tested on: leukemia, melanoma and breast cancer cell lines; test: NCI-60 antiproliferation screen; assay type: cell-based, human; conditions: 10 µM
Procedure: as §1, §2, §3

Structure (SMILES): Cc1cc2c(NC(=O)c3cc(NC(=O)c4ccco4)cc(-c4ccn(C)n4)c3)cccc2nn1 [Compound 2]
- recruitment of lymphocytes (T and B cells), dendritic cells and neutrophils to the pLN [1]: significantly inhibited the recruitment of lymphocytes
- %Growth (TK-10): 78%
- %Growth (NCI-H23): 71%
- %Growth (PC-3): 54%
- %Growth (HCC-2998): 66%
- %Growth (SF-268): 72%
- %Growth (K-562): 29%
- %Growth (NCI/ADR-RES): 91%
- %Growth (RXF 393): -5%
- %Growth (A549/ATCC): 61%
- %Growth (SK-OV-3): 86%
- %Growth (MOLT-4): 53%
- %Growth (OVCAR-8): 67%
- %Growth (T-47D): 44%
- %Growth (SNB-75): 27%
- %Growth (SF-539): 44%
- %Growth (LOX IMVI): 34%
- %Growth (HS 578T): 19%
- %Growth (EKVX): 63%
- %Growth (NCI-H522): 3%
- %Growth (SN12C): 63%
- %Growth (CAKI-1): 22%
- TNF-α-induced expression of il1β, il8, mcp-1 and tnf-α (mRNA) [2]: inhibited expression to a greater extent than the less potent but more soluble inhibitor 5
- %Growth (HL-60(TB)): 25%
- growth of cancer cell lines (NCI-60), in words [3]: strongly inhibit the growth of leukemia, melanoma and breast cancer cell lines
